≈ marks a conversion by molar mass, not a printed value.

Usually solubility (kinetic) stands for the concentration staying in solution when a stock, usually in DMSO, is diluted into the medium.

For this data set the following is noted: buffer; pH 7.4; 200.0 µM.
`CCOC(=O)Cn1cc(C#N)c2ccccc21` showed a solubility (kinetic) above 0.0342 mg/mL.
With `COc1ccc(NC(=O)Cc2cccc3ccccc23)cc1` the figure was 0.0029 mg/mL (≈ 9.95 µM); with `O=C(CC12CC3CC(CC(C3)C1)C2)Nc1ccc(C(=O)O)cc1`, above 0.047 mg/mL.
With `CCCn1c(Oc2ccccc2)nc2c1c(=O)n(C)c(=O)n2C` the figure was 0.045 mg/mL (≈ 143 µM); with `Cl.NCCOc1ccc(C23CC4CC(CC(C4)C2)C3)cc1`, above 0.0462 mg/mL; with `Cc1ccc(C2=NN(CC(=O)NCc3cccs3)C(=O)CC2)cc1`, above 0.0512 mg/mL.
`O=S(=O)(Nc1cccc2ccccc12)c1ccccc1F` displayed a solubility (kinetic) of 0.0015 mg/mL (≈ 4.98 µM).
The same measure for `CN(CC1COc2ccccc2O1)C(=O)Cn1cc(C(F)(F)F)ccc1=O` (centres undefined): above 0.0574 mg/mL.
In the case of `O=c1c(Cc2c(F)cccc2Cl)c(O)ccn1C1CCCCCC1`, the kinetic solubility is below 0.0007 mg/mL.
The same measure for `Cc1nn(-c2ccccc2)c(C)c1CN`: above 0.0302 mg/mL.
Turning to `CC(=O)c1cccc(NC(=O)COc2cc(C)on2)c1`, the solubility (kinetic) was above 0.0411 mg/mL.
With `CC1CCCCC1NC(=O)c1cc(S(=O)(=O)N2CCOCC2)ccc1Cl` (centres undefined) the figure was 0.0167 mg/mL (≈ 41.7 µM); with `CC(=O)Nc1ccc(NCc2ccc(C)s2)cc1`, above 0.0391 mg/mL; with `Cc1ccccc1OCC(=O)Nc1ccccc1NC(=O)c1ccco1`, 0.0367 mg/mL (≈ 105 µM).
With `COc1cccc(/C=C/C(=O)OCC(=O)NC2CC2)c1` the figure was above 0.0413 mg/mL; with `OC(CNCc1ccccc1)(c1ccccc1)c1ccccc1`, above 0.0455 mg/mL; with `Nc1ccc(C(=O)O)cc1S(=O)(=O)O`, above 0.0326 mg/mL.
In the case of `COC(=O)c1c(NC(C)=O)sc(C)c1C`, the solubility (kinetic) was 0.031 mg/mL (≈ 136 µM).
With `N/C(=N\OC(=O)c1ccc([N+](=O)[O-])cc1Cl)c1ccccn1` the figure was 0.0128 mg/mL (≈ 39.9 µM).
The same measure for `O=C(COC(=O)C12CC3CC(CC(Cl)(C3)C1)C2)Nc1ccccc1`: 0.0059 mg/mL (≈ 17 µM).
With `O=C(Nc1ccccc1C(=O)N1CCCCC1)c1ccco1` the figure was above 0.0448 mg/mL; with `CC1(c2ccc(Cl)cc2)NC(=O)N(CC(=O)NC2CCCCC2)C1=O` (centres undefined), above 0.0546 mg/mL.
As for `COc1ccc(OC)c(NC(=O)COC(=O)CC2CCCCC2)c1`, the kinetic solubility is 0.019 mg/mL (≈ 56.6 µM).
With `NC(=O)C1CCN(c2nc3ccccc3nc2NS(=O)(=O)c2ccc(Br)cc2)CC1` the figure was 0.0539 mg/mL (≈ 110 µM).
`Cc1ccc(S(=O)(=O)NCc2csc(C)n2)cc1` had a solubility (kinetic) above 0.0424 mg/mL.
The same measure for `FC(F)(F)c1cnc(N2CCSCC2)c(Cl)c1`: below 0.0003 mg/mL; for `Cc1c(C(=O)N/N=C/c2ccoc2)cccc1[N+](=O)[O-]`: above 0.041 mg/mL; for `O=C(C(=O)N1CCN(c2ccc(F)cc2)CC1)c1c[nH]c2ccccc12`: 0.0069 mg/mL (≈ 19.6 µM).
`Cc1ccc(S(=O)(=O)NC(C)C(=O)NCc2ccc(Cl)cc2)cc1` (centres undefined) had a solubility (kinetic) of 0.0069 mg/mL (≈ 18.8 µM).
With `CCCCNCc1cc2ccccc2o1.Cl` the figure was 0.0317 mg/mL; with `O=C(Oc1ccc(Cl)c(Cl)c1)C1=CC=CN2CCS(=O)(=O)N=C12`, 0.0197 mg/mL (≈ 52.8 µM); with `CC(=NCCCO)c1c(O)[nH]c(=O)[nH]c1=O`, above 0.0341 mg/mL.
With `CCCNC(=O)CSc1nc2ccc(OCC)cc2s1` the figure was 0.0072 mg/mL (≈ 23.2 µM); with `COc1ccc(N2C(=O)/C(=C/c3cccs3)C(=O)NC2=S)cc1`, 0.0314 mg/mL (≈ 91.2 µM).
Regarding `O=C(Cc1ccc(Cl)cc1Cl)Nc1ccncc1`, the solubility (kinetic) came out at 0.031 mg/mL (≈ 110 µM). The solubility kinetic values of the last two compounds are within 1.5-fold of each other.
Turning to `CCCCOc1ccc(N=Cc2ccc[nH]2)cc1`, the kinetic solubility stood at 0.0349 mg/mL (≈ 144 µM).
The same measure for `CCOC(=O)C1=C(C)NC(C)=C(C(=O)OCC)C1C(=O)OCC(=O)N1CCC(C)CC1`: 0.0159 mg/mL (≈ 36.4 µM); for `COc1ccccc1CCC(=O)N(C)CC(=O)Nc1ccc(F)cc1`: 0.0204 mg/mL (≈ 59.2 µM).
The same measure for `CNC(=O)C(=O)Nc1c(O)c2ccccc2[nH]c1=O`: above 0.0392 mg/mL; for `COC(=O)c1cc(S(=O)(=O)NCCCc2ccco2)c[nH]1`: above 0.0469 mg/mL; for `CCOC(=O)/C(C#N)=C/C1=C(N2CCOCC2)C(C)(C)OCC1`: above 0.0481 mg/mL.
In turn, `COc1cc(OC)cc(C(=O)NCC(=O)OCC(=O)NCc2ccco2)c1` gave a kinetic solubility above 0.0565 mg/mL.
In the case of `N#C/C(=C\c1cccnc1)C(=O)Nc1cccc(Cl)c1`, the solubility (kinetic) amounted to 0.01 mg/mL (≈ 35.2 µM).
The same measure for `CCOC(=O)c1nc2c(ccc3ccccc32)cc1C`: below 0.0006 mg/mL.
In turn, `COc1cc(OC)c(NC(=O)N2CCOCC2)cc1Cl` yielded a solubility (kinetic) above 0.0451 mg/mL.
Regarding `COc1ccc2c(c1)CC/C(=C/c1ccccn1)C2=O`, the solubility (kinetic) was 0.0385 mg/mL (≈ 145 µM).
In the case of `COc1ccc(NC(=O)c2ccc3c(c2)NC(=O)CO3)cc1OC`, the kinetic solubility was determined as 0.0102 mg/mL (≈ 31.1 µM).
With `O=C(CCc1ccccc1)Nc1cccnc1` the figure was above 0.0339 mg/mL; with `O=Cc1ccc(C(=O)OCC(=O)NC(=O)Nc2ccccc2F)cc1`, 0.0289 mg/mL (≈ 83.9 µM).
The same measure for `O=C(Nc1ccccc1)Nc1cnccn1`: 0.0162 mg/mL (≈ 75.6 µM); for `CN(C)C(CNC(=O)CSC(=S)N1CCCC1)c1ccccc1` (centres undefined): above 0.0527 mg/mL.
With `C=CCn1c(/N=C/c2ccc(OC)cc2)nc2ccccc21` the figure was 0.0406 mg/mL (≈ 139 µM); with `CCOc1ccccc1NC(=O)Nc1ccon1`, 0.0155 mg/mL (≈ 62.7 µM).
For `CCOc1ccc(C(=O)OCC(=O)NCC2CCCO2)cc1` (centres undefined), the solubility (kinetic) is above 0.0461 mg/mL.
`CCCc1nnc(SCC(=O)NC2CC2)n1CC` displayed a solubility (kinetic) above 0.0403 mg/mL.
Compound `O=C(NC1CCCc2ccccc21)c1c(F)cccc1Cl` (centres undefined) displayed a kinetic solubility of 0.0083 mg/mL (≈ 27.3 µM).
`O=C(CN1C(=O)COc2ccc(Cl)cc21)NCC1CCCO1` (centres undefined) returned a solubility (kinetic) above 0.0487 mg/mL.
With `C=CCNC(=O)CN(Cc1ccccc1)S(=O)(=O)c1ccccc1` the figure was above 0.0517 mg/mL; with `CC1Oc2ccccc2N(CC(=O)NC2CC2)C1=O` (centres undefined), above 0.039 mg/mL; with `Cc1cccc(C(=O)OCC(=O)N(C)c2ccccc2)c1C`, above 0.0446 mg/mL.
The same measure for `CCC1Oc2ccc(C)cc2N(CC(=O)NCc2cccs2)C1=O` (centres undefined): 0.0052 mg/mL (≈ 15.1 µM).
In turn, `CC(=O)Nc1nc(C)c(Oc2ccc(Cl)cc2)c(=O)[nH]1` returned a solubility (kinetic) of 0.043 mg/mL (≈ 146 µM).
The same measure for `Cc1cc(C(=O)Nc2ccc(N3CCOCC3)c(Cl)c2)c(C)o1`: 0.0456 mg/mL (≈ 136 µM); for `CN(CCc1nnc(N)s1)[N+](=O)[O-]`: above 0.0305 mg/mL; for `Cc1cc(C)c2c(n1)sc1c(=O)n(CC(=O)c3ccccc3)cnc12`: below 0.0002 mg/mL.
The compound `Cc1cc(C)c[n+](CC(=O)c2ccccc2)c1.[Br-]` had a solubility (kinetic) of 0.0438 mg/mL.
The same measure for `C1CCCCCC(NCCN2CCNCC2)CCCCC1`: above 0.0443 mg/mL.
The same measure for `CCOc1cc(C(N)=O)cc(Br)c1OCc1ccccc1`: 0.0128 mg/mL (≈ 36.5 µM); for `O=C1NC(c2ccccc2Br)=N/C1=C\c1ccco1`: 0.0136 mg/mL (≈ 42.9 µM); for `CCN(CC(=O)Nc1ccc(C(C)=O)cc1)CC(=O)Nc1ccc2c(c1)OCCO2.O=C(O)C(=O)O`: above 0.0752 mg/mL.
With `O=C(NNC(=O)c1cccs1)c1ccc(Cl)nc1` the figure was above 0.0423 mg/mL; with `O=S(=O)(Nc1ccc2ccccc2n1)c1ccc2c(c1)CCO2`, 0.0459 mg/mL (≈ 141 µM); with `CN(CC(=O)Nc1cccc(F)c1)C(=O)c1ccc(-c2ccc(Cl)cc2)o1`, 0.0056 mg/mL (≈ 14.5 µM).
Compound `CCc1nc2cc(Cl)c(Cl)cc2nc1CC` yielded a kinetic solubility below 0.0003 mg/mL.
The same measure for `CCOC(=O)c1[nH]cnc1C(=O)Nc1ccc(F)cc1`: 0.0067 mg/mL (≈ 24.2 µM); for `O=C(NCc1ccc(F)cc1)C1CC(=O)N(Cc2ccco2)C1` (centres undefined): above 0.0474 mg/mL; for `CCOc1ncccc1C(=O)N1CCN(C(=O)c2ccccc2)CC1`: above 0.0509 mg/mL.
On to `O=C(OCC(=O)N1CCc2ccccc21)c1ccc(Br)o1`, for which the kinetic solubility worked out at 0.0037 mg/mL (≈ 10.6 µM).
With `COCCn1c(C)cc(C(=O)COc2cccnc2[N+](=O)[O-])c1C` the figure was 0.0497 mg/mL (≈ 149 µM); with `Cc1nc2c(c(=O)c3ccccc3n2C)c(=O)n1-c1ccc(F)cc1`, 0.0137 mg/mL (≈ 40.9 µM).
The same measure for `CC(C)CCNC(=O)c1ccc(-n2cnc3cccnc32)cc1`: above 0.0463 mg/mL; for `COc1ccc(S(=O)(=O)N2CCNCC2)cc1`: 0.0311 mg/mL (≈ 121 µM).
The same measure for `COC(=O)C1CCN(C(=O)COc2ccc(S(=O)(=O)N3CCOCC3)cc2Cl)CC1`: above 0.0691 mg/mL; for `CC1NC(=O)NC1CCCCCC(=O)Nc1ccc(F)cc1` (centres undefined): above 0.0461 mg/mL; for `Cc1ccccc1C(=O)NC(=S)N(CCO)Cc1ccccc1`: above 0.0493 mg/mL.
`CC1(C)CC(=O)C2=C(C1)NC(=O)NC2c1ccccc1` (centres undefined) showed a solubility (kinetic) of 0.0399 mg/mL (≈ 148 µM).
With `C#CCn1cccc(C(=O)Nc2ccc(OC)cc2)c1=O` the figure was 0.0063 mg/mL (≈ 22.3 µM).
The compound `COc1cccc(C(=O)N(C)C(C)c2nc3ccccc3s2)c1` (centres undefined) registered a solubility (kinetic) above 0.049 mg/mL.
The same measure for `COc1cc2c(cc1OC)C(c1ccc(Cl)cc1)=NCC2`: 0.0415 mg/mL (≈ 138 µM).
With `O=C(CN1CCCC1)NC(=O)NC1CCCC1` the figure was above 0.0359 mg/mL; with `c1ccc(Cc2c[nH]c3ccccc23)cc1`, 0.0067 mg/mL (≈ 32.3 µM); with `CCOc1ccccc1NC(=O)CN1CCC(NC(=O)Nc2ccccc2)CC1`, 0.0185 mg/mL (≈ 46.7 µM).
On to `O=C(COC(=O)c1ccc[nH]c1=O)NC1CCCCCCC1`, for which the solubility (kinetic) was 0.0415 mg/mL (≈ 135 µM).
`O=C(NC1CCCCC1)C(=S)NCCc1ccccc1` gave a solubility (kinetic) of 0.0014 mg/mL (≈ 4.82 µM). This solubility kinetic is about 30-fold lower than that of the compound before.
With `Cc1ccc(S(=O)(=O)/C(=C\N(C)C)c2cnc(Cl)s2)cc1` the figure was above 0.0514 mg/mL; with `CCOC(=O)C1CCCN(C(=O)COc2ccc(S(=O)(=O)N3CCOCC3)cc2)C1` (centres undefined), above 0.0661 mg/mL; with `Cn1cccc1/C=C(/C#N)c1ccc(F)cc1`, 0.0029 mg/mL (≈ 12.8 µM).
The same measure for `CCc1nc2ccccc2c(C(=O)Nc2cccc(C)c2)c1C`: 0.0022 mg/mL (≈ 7.23 µM).
In the case of `Cc1ccc(C(=O)NCC(=O)OCC(=O)c2ccccc2)s1`, the kinetic solubility was above 0.0476 mg/mL.
With `COc1ccc(CNc2ncnc3sccc23)cc1` the figure was above 0.0407 mg/mL; with `O=C(CN1CCCCCC1)Nc1cc([N+](=O)[O-])ccc1Cl`, 0.0226 mg/mL (≈ 72.5 µM); with `CCN(CC(=O)Nc1ccc(C)c(F)c1)CC(=O)NC(C)C`, above 0.0464 mg/mL.
In turn, `CN(CC(=O)Nc1ccccc1Cl)C(=O)CN1C(=O)C2CC=CCC2C1=O` (centres undefined) returned a kinetic solubility of 0.0503 mg/mL (≈ 129 µM).
The same measure for `CC(=O)c1ccc(N2CCC(C)CC2)c(F)c1`: 0.006 mg/mL (≈ 25.5 µM).

For the origin of these results see PubChem BioAssay AID1996.
